The values that follow come from paper PMC5428058, “Local delivery of novel MRTF/SRF inhibitors prevents scar tissue formation in a preclinical model of fibrosis” (Scientific Reports, 2017).

The IC50 is the concentration that gives 50% inhibition.

Data set [1] can be described thus: drug levels in aqueous, vitreous and serum by LC/MS. The following applies: rabbit, day 30, 48 hours after the last subconjunctival dose. It counts as in vivo. The method, then: All animals were carefully evaluated for any signs of ocular or systemic toxicity during the study. At day 30, 100 µl of aqueous, 1 ml of vitreous, and 1 ml of venous blood were sampled on the rabbit eyes receiving CCG-222740 or CCG-203971 or vehicle control. The venous blood samples were left to clot for 30 minutes at room temperature, spun at 4000 rpm for 15 minutes at 4 °C, and the serum was collected as the supernatant. Samples were extracted in acetonitrile and the levels of CCG-222740 and CCG-203971 were measured in the aqueous, vitreous, and serum using liquid chromatography/mass spectrometry (LC/MS) in the Metabolomics Core at Michigan State University (East Lansing, MI).

Data set [2] deals with αSMA-positive human conjunctival fibroblasts. Description: alpha smooth muscle actin staining. It is filed as cell-based. The note with it: 48 hours, control 24.5%. On the procedure: Human conjunctival fibroblasts were plated on 20 mm glass coverslips at 1 × 10^5 cells/well in 6-well plates (Falcon, Fisher Scientific). The next day, the fibroblasts were treated for 48 hours with 10 or 25 μM of CCG-222740 or CCG-203971 or 0.1% DMSO control in DMEM +10% FCS. The samples were fixed in 4% paraformaldehyde for 10 minutes, washed three times in PBS, and permeabilised in PBS 0.2% TX-100 (Triton X-100, Sigma) for 20 minutes. The samples were blocked with 5% fetal calf serum/5% bovine serum albumin (Sigma) for 1 hour. The samples were incubated overnight with the Cy3-labelled alpha smooth muscle actin antibody (1:1000, Sigma) in a wet chamber at 4 °C in the dark. The next day, the samples were washed twice in PBS 0.1% TX-100 and incubated with phalloidin (1:200) and DAPI (1:2000) for 1 hour at room temperature. The samples were then mounted on slides and imaged using an Upright780 Zeiss LSM confocal microscope. The proportion of fibroblasts with prominent αSMA-positive stress fibres was quantified visually from three random fields of view per treatment group in 3 independent experiments.

Data set [3] has as its system rabbit conjunctival tissue. Briefly: histologic analysis of bleb tissue after glaucoma filtration surgery. It is filed as in vivo. The following applies: for expression of αSMA by cells in tissue sections / scar tissue formation (picrosirius red) compared to vehicle control: day 30; for newly laid extracellular matrix and collagen (Gomori's trichrome): day 30, vehicle versus treated. The method, then: We further evaluated the histologic differences after local delivery of CCG-222740 and CCG-203971. The white filtration tube was used as landmark and the plane of sectioning of the bleb area was performed 2 mm from the tube (black line in Fig. 5). Grading was performed using a modified system originally described by Shah et al.[34]. The left operated eyes were compared to the right non-operated eyes that were used as controls for the appearance of normal conjunctival tissue. The sections were graded using a scale of −4 to +4 (0 = same as control eye; 1 = 1–25% difference from control eye; 2 = 26–50% difference from control eye; 3 = 51–75% difference from control eye; 4 = >75% difference from control eye; prefix+, more than; prefix−, less than). Analysis was performed using the mean results in each treatment group.
The animals were sacrificed on day 30 and both eyes were enucleated. The eyes were fixed in formalin, embedded in paraffin, and sequential 4 μm tissue sections were cut.
The sections were stained with hematoxylin and eosin (for cellularity and inflammatory cells), Gomori’s trichrome (for collagen), picrosirius red (for degree of fibrosis and collagen deposition), and alpha-smooth muscle actin (αSMA) using a primary monoclonal mouse anti-human αSMA antibody (Clone 1A4; Dako, High Wycombe, UK) and a biotinylated secondary antibody (rabbit anti-mouse; Dako). All the left operated eyes were compared to the right non-operated eyes that were used as controls for the appearance of normal conjunctival tissue. The sections were graded using a modified grading system originally described by Shah et al.[34], with a scale of −4 to +4 according to the staining intensity. Grades were defined as 0 = same as control eye; 1 = 1–25% difference from control eye; 2 = 26–50% difference from control eye; 3 = 51–75% difference from control eye; 4 = >75% difference from control eye (prefix+, more than; prefix −, less than).

The test system of data set [4] is human conjunctival fibroblasts. Briefly: fibroblast-populated collagen contraction assay (human). It counts as cell-based. The note with it: for IC50: human conjunctival fibroblasts in collagen type I matrix, 7 days. On the procedure: We screened two candidate MRTF/SRF pathway inhibitors, CCG-222740 and CCG-203971, using detached three-dimensional fibroblast-populated collagen gels[56], [57]. Human or rabbit conjunctival fibroblasts were seeded in a collagen Type I matrix (First Link UK Ltd, Birmingham, UK) at a concentration of 0.7 × 10^4 cells/ml. The fibroblast-populated collagen gel mixture was cast into the wells of MatTek dishes (MatTek Corp, MI, USA). The gels were detached from the edges of the well and 2 ml of growth medium were added to each well with 5, 25, 50, 75, or 100 μM of CCG-222740 or CCG-203971 or 0.1% DMSO control. Digital photographs were obtained daily and lattice areas were measured using Image J software (http://rsb.info.nih.gov/ij/). The gel size at day 7 was assessed as a percentage of lattice area on day 0. Each experiment was performed as triplicate gels per condition and the experiment was repeated on three separate days.

Data set [5] has as its system SRF reporter gene. Briefly: SRF reporter gene assay in transfected cells. The note with it: human and rabbit conjunctival fibroblasts (3DA.Luc), HEK293 (SRE.L luc), 24 hours. It is filed as cell-based. The method, then: Human or rabbit conjunctival fibroblasts were plated at 2 × 10^4 cells/well in 24-well plates (Falcon, Fisher Scientific) for transient transfection. Conjunctival fibroblasts in each well were co-transfected using 2.5 μl Lipofectamine LTX and 0.5 μl Plus reagent (Invitrogen) with 8 ng of SRF reporter plasmid 3DA.Luc, 20 ng of pTK-Renilla-Luc and 172 ng of pEF in OptiMEM (Gibco)[58]. After 2 hours of transfection, fibroblasts were allowed to recover in DMEM +10% FCS overnight.
HEK293T cells were plated at 2 × 10^4 cells/well in 96-well plates (Falcon, Fisher Scientific) and co-transfected using Lipofectamine 2000 (Invitrogen) with 4 ng of SRF reporter plasmid SRE.L. luciferase, and 2 ng of either Gα12Q231L or pcDNA3.1/Zeo(−) diluted in Opti-MEM (Gibco). After 5 hours of transfection, cells were allowed to recover in DMEM +10% FCS overnight.
The next day, the cells were serum starved in DMEM +0.3% FCS and 5, 25, 50, or 100 μM of CCG-222740 or CCG-203971 or 0.1% DMSO control for 24 hours. The cells were then lysed and luciferase levels were measured using a Luciferase Assay System (Promega), according to the manufacturer’s instructions. Each experiment was carried out in triplicates for each condition and the experiment was repeated three times.
On the technique in general: In a reporter assay the amount or activity of a reporter protein is the signal.

As to `O=C(Nc1ccc(Cl)cc1)C1CCCN(C(=O)c2cccc(-c3ccco3)c2)C1` (stereo not drawn) [CCG-203971], in data set [1], the “drug level in aqueous” value was “below 20 nM”, the “drug level in serum” value is listed as “below 20 nM” and the “drug level in vitreous” value was “below 20 nM”. For the same compound, the “percentage of αSMA-positive fibroblasts” value in data set [2] (10 μM) was determined as 17.0%. Besides, in data set [2] (25 μM), the “percentage of αSMA-positive fibroblasts” value came to 8.6%. Besides, in data set [3], the “expression of αSMA by cells in tissue sections” value is “significantly decreased the expression of αSMA”; the “scar tissue formation (picrosirius red) compared to vehicle control” value is “significant decrease in scar tissue formation”; the “newly laid extracellular matrix and collagen (Gomori's trichrome)” value was “present to a greater degree in the vehicle-treated group compared to”. This compound also came in with an IC50 in data set [4] of 25 µM. Moreover, the “inhibition of baseline SRF reporter activity” value in data set [5] was approximately 100%.

Consider `O=C(Nc1ccc(Cl)cc1)C1CN(C(=O)c2cccc(-c3ccco3)c2)CC(F)(F)C1` (stereo not drawn) [CCG-222740], for which, in data set [1], the “drug level in aqueous” value is recorded as “below 20 nM”, the “drug level in serum” value was “below 20 nM” and the “drug level in vitreous” value is “below 20 nM”. Further, the “percentage of αSMA-positive fibroblasts” value in data set [2] (10 μM) is 9.0%. Further, the “percentage of αSMA-positive fibroblasts” value in data set [2] (25 μM) worked out at 2.2%. Also, in data set [3], the “expression of αSMA by cells in tissue sections” value is “significantly decreased the expression of αSMA”; the “scar tissue formation (picrosirius red) compared to vehicle control” value is “significant decrease in scar tissue formation”; the “newly laid extracellular matrix and collagen (Gomori's trichrome)” value is listed as “present to a greater degree in the vehicle-treated group compared to”. In data set [4] (human conjunctival fibroblasts), the “potency in collagen contraction relative to CCG-203971” value is “five times more potent than CCG-203971”. In data set [4], this compound came in with an IC50 of 5 µM. In addition, the “inhibition of baseline SRF reporter activity” value in data set [5] is given as approximately 100%.
